From US12703870B2, “Regulation of root development” (UT-Battelle, LLC, priority 2023, dated 2026)

Test system: adventitious root formation in control and PtrXB38-OE micro-cuttings
Assay: Adventitious root formation of micro-propagated cuttings in ½ MS medium with chemical treatment
Assay type: in vivo, P. tremula×P. alba ‘INRA 717-1B4’
Protocol: Plant Growth Conditions: The tissue culture plants were maintained in ½ MS media (½ MS basal salts, 20 g/L sucrose, 1× Gamborg's B5 vitamin mixture, 0.3% Gelzan) supplemented with 0.1 mg/L IBA and grown in growth chambers (16 h:8 h, light:dark) with white fluorescent light (100 μmol m^−2 s^−1) at 22° C. To assess adventitious root development phenotype, 2-3 cm length of shoot tops from 1-month-old tissue culture saplings were excised and placed in fresh medium for root induction. Root number was counted 12 days after subculture. For chemical treatment, filter-sterilized auxin transport inhibitor naphthylphthalamic acid (NPA) and ethylene biosynthesis inhibitor aminoethoxyvinylglycine (AVG) were added in the ½ MS medium.

In the case of `O=C(O)c1ccccc1C(=O)Nc1cccc2ccccc12` [NPA, naphthylphthalamic acid], the root formation (5 μM NPA, both control and PtrXB38-OE micro-cuttings) was “completely blocked root formation” and the “promotive effect of PtrXB38 on AR formation (adventitious root number)” value (increasing NPA concentrations (0.2 μM and 1 μM, FIG. 3D), PtrXB38-OE plants) was “gradually attenuated”.
